Results published in patent US8338472B2, “Hexahydrocyclopentyl[F]indazole carboxamides and derivatives thereof as selective glucocorticoid receptor modulators” (Merck Sharp & Dohme Corp., priority 2008, dated 2012).
Read-outs that look alike come from different tables or passages of the source.

Key:
[1] = target: T1, glucocorticoid receptor (GR) (Homo sapiens, UniProt P04150); assay: Ligand binding assay (GR BIND), 3H-dexamethasone displacement in MDA-MB-453 cell lysate; conditions: GR BIND Ki
T1 sequence (P04150 1-777): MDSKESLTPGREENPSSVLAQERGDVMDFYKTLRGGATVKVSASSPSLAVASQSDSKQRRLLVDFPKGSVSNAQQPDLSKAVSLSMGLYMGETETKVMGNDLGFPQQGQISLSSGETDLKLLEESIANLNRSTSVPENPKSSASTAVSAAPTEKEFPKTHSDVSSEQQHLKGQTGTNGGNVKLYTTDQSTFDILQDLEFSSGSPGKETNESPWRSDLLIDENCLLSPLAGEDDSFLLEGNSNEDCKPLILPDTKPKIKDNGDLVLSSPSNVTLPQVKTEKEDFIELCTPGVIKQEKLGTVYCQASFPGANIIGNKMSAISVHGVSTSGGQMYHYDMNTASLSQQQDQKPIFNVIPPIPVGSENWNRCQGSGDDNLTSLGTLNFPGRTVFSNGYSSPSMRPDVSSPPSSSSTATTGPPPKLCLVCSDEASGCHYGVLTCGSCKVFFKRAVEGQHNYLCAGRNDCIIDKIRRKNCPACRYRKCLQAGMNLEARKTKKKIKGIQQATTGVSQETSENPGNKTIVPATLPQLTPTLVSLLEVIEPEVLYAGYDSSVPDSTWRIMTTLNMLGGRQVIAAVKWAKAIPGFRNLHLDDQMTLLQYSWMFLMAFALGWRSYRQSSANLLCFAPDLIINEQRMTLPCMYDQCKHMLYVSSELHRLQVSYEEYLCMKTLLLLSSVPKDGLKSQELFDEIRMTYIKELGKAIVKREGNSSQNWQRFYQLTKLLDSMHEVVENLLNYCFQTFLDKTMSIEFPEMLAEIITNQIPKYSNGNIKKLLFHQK

Glucocorticoid Receptor = target: T2, Glucocorticoid Receptor (Homo sapiens, UniProt P04150); assay: Trans-Activation Modulation of Glucocorticoid Receptor (GRAMMER), MMTV-LUC reporter gene in A549 cells; assay type: cell-based; conditions: Table 1; for Emax: A549, A549 cells, Emax relative to 300 nM dexamethasone, read-out: Transactivation A549 Cells GRAMMER Emax; for EC50: inflection point, A549 cells, read-out: Transactivation A549 Cells GRAMMER IP
T2 construct: These cells express large amount of the GR and are very responsive to GC treatment; endogenous in cells; host or cells: A549 cells transiently transfected with the MMTV-LUC reporter
T2 sequence (P04150 1-777): T1 sequence (P04150 1-777)
Excerpt: Trans-Activation Modulation of Glucocorticoid Receptor (GRAMMER)
This assay assesses the ability of test compounds to control transcription from the MMTV-LUC reporter gene in lung adenocarcinoma A549 cells or MDA-MB-453 cells, a human breast cancer cell line that naturally expresses the human GR. The assay measures induction of a modified MMTV LTR/promoter linked to the LUC reporter gene.
The routine transient assay consists of plating 7,000-25,000 cells/well of a white, clear-bottom 96-well plate. Alternatively, 384-well plates can be used at a cell concentration of 10,000/well. The media that the cells are plated in is “exponential growth medium” which consists of phenol red-free RPMI1640 containing 10% FBS, 4 mM L-glutamine, 20 mM HEPES, 10 ug/mL human insulin, and 20 ug/mL gentamicin. Incubator conditions are 37° C. and 5% CO2. The transfection is done in batch mode. The cells are trypsinized and counted to the right cell number in the proper amount of fresh media. It is then gently mixed with the FuGene6/DNA mix and plated onto the 96 or 384-well plate, all the wells receive 100 uL or 40 uL, respectively, of medium+lipid/DNA complex then incubated 37° C. overnight. The transfection cocktail consists of serum-free OptiMEM, FuGene6 reagent and DNA. The manufacturer's (Roche Biochemical) protocol for cocktail setup is as follows: The lipid to DNA ratio is approximately 2.5:1 and the incubation time is 20 min at room temperature. Sixteen to 24 hours after transfection, the cells are treated with dexamethasone to a final concentration of 10 nM as well as the compound of interest, such that final DMSO (vehicle) concentration is equal to or less than 1%. Each plate also contains samples that are treated with 10 nM dexamethasone alone, which is used as the 100% activity control. The cells are exposed to the compounds for 24 hours. After 24 hours, the cells are lysed by a Promega cell culture lysis buffer for approximately 30 min and then the luciferase activity in the extracts is assayed in the 96-well format luminometer. In 384-well format, Steady-Glo (Promega) or Steady-Lite (PerkinElmer) can be used by adding an equal volume of reagent to the media present in each well. Activity induced by 10 nM dexamethasone alone is set at 100% activity. Antagonist activity is calculated by determining the decrease in dexamethasone-induced activity in response to compound treatment relative to samples that were treated with dexamethasone alone. […] This transactivation assay can be performed in an agonist and antagonist mode to identify these different activities.
Activity of test compounds is calculated as the Emax relative to the activity obtained with 300 nM dexamethasone. Activity of test compounds is calculated as the Emax relative to the activity obtained with 300 nM DEX. […] The action of compounds is also tested in an antagonist mode (Anti-GRAMMER) in which the cells are treated with medium containing an agonist such as 10 nM DEX and the ability to agents to inhibit the activation by an agonist is measured.

human GR = target: T3, human GR (Homo sapiens, UniProt P04150); assay: Transrepression Assay (GITAR), TNFα-β-lactamase reporter gene in U937 cells; assay type: cell-based; conditions: for GITAR Greater than by GRAMMER % SEP: GITAR Emax minus GRAMMER Emax; for EC50: inflection point, U937 cells, read-out: Transrepression U937 Cells GITAR IP
T3 construct: U937 cells contain an endogenous glucocorticoid receptor (GR); endogenous in cells; host or cells: U937 cells stably transfected with the TNF-alpha promoter/beta-lactamase reporter
T3 sequence (P04150 1-777): T1 sequence (P04150 1-777)
Excerpt: Transrepression Assay (GITAR)
This assay assesses the ability of test compounds to control transcription from the TNFα-β-lactamase reporter gene in U937 cells, a human myelomonocytic leukemia cell line that naturally expresses the human GR. The assay measures compound dependent-repression of the TNFa promoter linked to a reporter gene.
The human U937 cells that had been stablely transfected with the TNF-α promoter driving β-lactamase are used for this assay. U937 cells contain an endogenous glucocorticoid receptor (GR). Cells are maintained in RPMI 1640 Growth medium (Gibco Cat#11875-093) containing 25 mM HEPES, 10% FBS, 2 mM L-Glutamine, 1 mM Sodium pyruvate, 25 μg/ml Gentamicin (Gibco Cat#15710-064), 1:1000 2-Mercaptoethanol (Gibco Cat#21985-023) and 0.8 mg/ml G418 (Gibco Cat#10131-027). The density of the cells in the flask needs to be about 1×10^6−3×10^6/ml at the time of harvest. Usually, the cells are split to 1.2˜1.4×10^5/ml (1:10) 3 days prior to the assay. 50,000 cells/well are plated in 96 well black-walled plates the day of assay. Test compounds are added 10 pt/well, and cells are incubated at 37° C. for 30-45 min. For assaying compounds, first dilute 1:10 in DMSO to make 1 mM, then further dilute 1:100 in medium to make 10× stock prior to adding to the cells. Add 50 ng/ml PMA (Sigma, cat# P8139) 10 μL/well to a final concentration 5 ng/ml, and 1 μg/ml LPS (Sigma, cat# L4130) 10 μL/well to a final concentration 100 ng/ml. Incubate cells at 37° C. overnight for ˜18 hr. PMA is stored frozen as 100 μg/ml stock in DMSO. Dilute 1:10 in DMSO for a working stock of 10 μg/ml and store at −20C. For assaying, dilute the […] working stock 1:200 in medium to make a 10× solution (50 ng/ml). Store frozen LPS at 1 mg/ml in PBS, dilute 1:1000 in medium to make 10× (1 μg/ml) for the assay. Add 6× loading buffer (CCF2−AM) 20 μL/well, and incubate at room temperature for 70-90 min. […] The activity repressed by 100 nM dexamethasone alone is set as 100% activity.

[2] = U-937, U937 cells, activity repressed by 100 nM dexamethasone = 100%, Table 1, read-out: Transrepression U937 Cells GITAR Emax
[3] = U-937, text statement, 100 nM dexamethasone = 100%, read-out: maximal activity in the transrepression assay (GITAR)

| Ki ([1]; compounds in the art (WO03/086294)) [nM] | Emax (Glucocorticoid Receptor) [%] | EC50 (Glucocorticoid Receptor) [nM] | GITAR Greater than by GRAMMER % SEP (human GR; Table 1) [%] | Emax (human GR; [2]) [%] | Emax (human GR; [3]) [%] | EC50 (human GR; Table 1) [nM] | Ki ([1]; Table 1) [nM] | SMILES |
| --- | --- | --- | --- | --- | --- | --- | --- | --- |
| 2420 | – | – | – | – | – | – | – | C[C@]12Cc3cnn(-c4ccc(F)cc4)c3C=C1CC[C@@H]2C(=O)Nc1ccccc1 (single isomer, unassigned) [reference compound] |
| – | 45.3 | 177 | 22.2 | 67.5 | > 5 | 328 | 1.7 | CCCN(CCC)C(=O)[C@H]1CCC2=Cc3c(cnn3-c3ccc(F)cc3)C[C@@]21C [Compound 1, (4αR,5S)-1-(4-Fluorophenyl)-4α-methyl-N,N-dipropyl-1,4,4α,5,6,7-hexahydrocyclopenta[f]indazole-5-carboxamide] |
| – | 3.1 | 1120 | 24.5 | 27.6 | > 5 | 3540 | 12.7 | C[C@]12Cc3cnn(-c4ccc(F)cc4)c3C=C1CC[C@@H]2C(=O)NC(Cc1ccccc1)c1ccccc1 (stereo partly drawn) [Compound 2, (4αR,5S)-N-(1,2-diphenylethyl)-1-(4-fluorophenyl)-4α-methyl-1,4,4α,5,6,7-hexahydrocyclopenta[f]indazole-5-carboxamide] |
| – | 0.9 | 5590 | 16.1 | 17 | > 5 | 5200 | 16.2 | C[C@]12Cc3cnn(-c4ccc(F)cc4)c3C=C1CC[C@@H]2C(=O)NCc1ccc(Cl)cc1Cl [Compound 3, (4αR,5S)-N-(2,4-dichlorobenzyl)-1-(4-fluorophenyl)-4α-methyl-1,4,4α,5,6,7-hexahydrocyclopenta[f]indazole-5-carboxamide] |
| – | 19.2 | 909 | 2.3 | 21.5 | > 5 | 1000 | 2.5 | CCCN(CC)C(=O)[C@H]1CCC2=Cc3c(cnn3-c3ccc(F)cc3)C[C@@]21C [Compound 4, (4αR,5S)-N-ethyl-1-(4-fluorophenyl)-4α-methyl-N-propyl-1,4,4α,5,6,7-hexahydrocyclopenta[f]indazole-5-carboxamide] |
| – | 35.4 | 358 | 24.2 | 59.6 | > 5 | 674 | 0.9 | CCCN(CC1CC1)C(=O)[C@H]1CCC2=Cc3c(cnn3-c3ccc(F)cc3)C[C@@]21C [Compound 5, (4αR,5S)-N-(cyclopropylmethyl)-1-(4-fluorophenyl)-4α-methyl-N-propyl-1,4,4α,5,6,7-hexahydrocyclopenta[f]indazole-5-carboxamide] |
| – | 1.3 | 133 | 11.5 | 12.8 | > 5 | 0.9 | 19.4 | C[C@]12Cc3cnn(-c4ccc(F)cc4)c3C=C1CC[C@@H]2C(=O)Nc1ccccc1 [Compound 6, (4αR,5S)-1-(4-fluorophenyl)-4α-methyl-N-phenyl-1,4,4α,5,6,7-hexahydrocyclopenta[f]indazole-5-carboxamide] |
| – | 13.4 | 1400 | 4.8 | 18.2 | > 5 | 586 | 1.3 | C[C@]12Cc3cnn(-c4ccc(F)cc4)c3C=C1CC[C@@H]2C(=O)N(Cc1ccc(Cl)cc1Cl)CC1CC1 [Compound 7, (4αR,5S)-N-(cyclopropylmethyl)-N-(2,4-dichlorobenzyl)-1-(4-fluorophenyl)-4α-methyl-1,4,4α,5,6,7-hexahydrocyclopenta[f]indazole-5-carboxamide] |
| – | 5.6 | 728 | 12.4 | 18 | > 5 | 812 | 1 | CC(C)CCN(CCC(C)C)C(=O)[C@H]1CCC2=Cc3c(cnn3-c3ccc(F)cc3)C[C@@]21C [Compound 8, (4αR,5S)-1-(4-fluorophenyl)-4α-methyl-N,N-bis(3-methylbutyl)-1,4,4α,5,6,7-hexahydrocyclopenta[f]indazole-5-carboxamide] |
| – | 3.8 | – | 6.3 | 10.1 | > 5 | – | – | C[C@]12Cc3cnn(-c4ccc(F)cc4)c3C=C1CC[C@@H]2C(=O)N1CCCCC1CCc1ccccc1 (stereo partly drawn) [Compound 18, (4αR,5S)-1-(4-fluorophenyl)-4α-methyl-5-{[2-(2-phenylethyl)piperidin-1-yl]carbonyl}-1,4,4α,5,6,7-hexahydrocyclopenta[f]indazole] |
